Results on six compounds are retold here after patent publication US10238671B2, “Hydrosoluble hydroxybisphosphonic derivatives of doxorubicin” (Atlanthera, priority 2014, dated 2019).

Data set [1] is described as follows: Solubility of compounds (II), (III) and (IV) compared with products (a) and (b). The following applies: for solubility: aqueous buffer.
Data set [2] in a line: Toxicity in mice (weight loss, cardiotoxicity, maximum usable dose). As to conditions: for Dose giving similar weight loss, relative to doxorubicin alone (maximum usable dose study): mice, intravenously or intraperitoneally.
The test system of data set [3] is human tumor line HOS (human osteosarcoma, ATCC). Nature of the data set: Orthotopic xenogeneic murine model of osteolytic osteosarcoma (paratibial injection of HOS): tumor volume and radiographic evaluation. The format is in vivo, immunosuppressed mice. The following applies: for Size of extraosseous tumors in relation to control group and vector 5 and/or doxorubicin groups: 25 μmol/kg 2x/wk intraperitoneally, HOS tumor in mice; for Fractures of the tibial metaphysis: Day 27, radiography, 90% of control animals have fractures; for Bone lesions (metaphyseal fractures, alteration of cortical integrity, new formation of ectopic bone): radiographic evaluation, compared with control and other groups. Here is the method:
The antitumor activity of compounds (II) and (III) according to the invention was evaluated in an orthotopic, xenogeneic murine model of osteolytic osteosarcoma induced by paratibial injection of the human tumor line HOS (human osteosarcoma, ATCC) in immunosuppressed mice. The activity of the molecules according to the invention was compared with that of the two main subunits comprising them (doxorubicin and vector 5) alone or in combination. The treatments, on 10 animals per group, began the day following tumor induction and were administered intraperitoneally 1 to 2 times per week for 5 weeks. Tumor volumes were measured twice per week using a slide caliper and radiographic evaluation was carried out once per week. Tumor volume, expressed in mm^3, is calculated according to the following formula: V=(L×l^2)/2 (L and l, expressed in mm, correspond to the large length and the small length of the tumor, respectively).
The following treatment groups were thus studied, each on 10 mice: […]

[4] abbreviates: 2 mg/ml solution of TRIS in water.

≈ marks a conversion by molar mass, not a printed value.

For `COc1cccc2c1C(=O)c1c(O)c3c(c(O)c1C2=O)C[C@@](O)(/C(CO)=N/NC(=S)N/N=C/c1cccc(OCCCN(C)CCC(O)(P(=O)(O)O)P(=O)(O)O)c1)C[C@@H]3O[C@H]1C[C@H](N)[C@H](O)[C@H](C)O1` [(a)], in data set [1] (setting [4]), the “Solubility in 2 mg/ml solution of TRIS in water” value is “insoluble”. Further, in data set [1] (DPBS or water), the “Solubility in DPBS or water” value is listed as “insoluble”. In addition, the “Solubility in organic solvents” value in data set [1] (ethanol or dimethylsulfoxide or mixtures thereof with water) is given as “insoluble”. Besides, in data set [1] (water with organic additives (Tween, PEG, glycerin, glucose, TRIS) or inorganic additives (sodium carbonate or bicarbonate)), the “Solubility in water with organic or inorganic additives” value is on record as “insoluble”.

With `COc1cccc2c1C(=O)c1c(O)c3c(c(O)c1C2=O)C[C@@](O)(/C(CO)=N/NC(=S)N/N=C/c1cccc(OCCCN(C)CCC(O)(P(=O)(O)O)P(=O)(O)O)c1)C[C@@H]3O[C@H]1C[C@H](NC(=O)CCC(=O)O)[C@H](O)[C@H](C)O1` [(b)], in data set [1] (setting [4]), the “Solubility in 2 mg/ml solution of TRIS in water” value was “poorly soluble” and the solubility was roughly 1 mM (≈ 1.13 mg/mL). The “Solubility in DPBS or water” value in data set [1] (DPBS or water) is recorded as “insoluble”.

On to `COc1cccc2c1C(=O)c1c(O)c3c(c(O)c1C2=O)C[C@@](O)(/C(CO)=N/NC(=S)NNC(=O)CN(CCN(CC(=O)O)CC(=O)NNC(=S)N/N=C/c1cccc(OCCCN(C)CCC(O)(P(=O)(O)O)P(=O)(O)O)c1)CC(=O)O)C[C@@H]3O[C@H]1C[C@H](N)[C@H](O)[C@H](C)O1` [Compound (II)], for which the “Signs of toxicity (very early weight loss, cardiotoxicity)” value in data set [2] (20 μmol/kg (molar equivalent dose to doxorubicin 12 mg/kg)) is reported as “do not induce these signs of toxicity”. Moreover, in data set [2], the “Dose giving similar weight loss, relative to doxorubicin alone (maximum usable dose study)” value is on record as 13 times higher. For the same compound, in data set [3], the “Size of extraosseous tumors in relation to control group and vector 5 and/or doxorubicin groups” value is listed as “significantly reduce”; the “Fractures of the tibial metaphysis” value is “not detected in any of the mice”; the “Bone lesions (metaphyseal fractures, alteration of cortical integrity, new formation of ectopic bone)” value (from here on “Bone lesions”) was “reduce”. For the same compound, the “Animals with a tumor greater than 1500 mm^3 in volume” value in data set [3] (Day 32, 10 mice per group) is listed as “only one mouse”. The same compound showed a solubility in data set [1] (DPBS or water) of roughly 255 mM (≈ 354 mg/mL).

Regarding `COc1cccc2c1C(=O)c1c(O)c3c(c(O)c1C2=O)C[C@@](O)(/C(CO)=N/NC(=S)NNCc1cccc(OCCCN(C)CCC(O)(P(=O)(O)O)P(=O)(O)O)c1)C[C@@H]3O[C@H]1C[C@H](N)[C@H](O)[C@H](C)O1` [Compound (III)], in data set [2], the “Dose giving similar weight loss, relative to doxorubicin alone (maximum usable dose study)” value is 13 times higher. In data set [3], the “Size of extraosseous tumors in relation to control group and vector 5 and/or doxorubicin groups” value is given as “significantly reduce”; the “Fractures of the tibial metaphysis” value is recorded as “not detected in any of the mice”; the “Bone lesions” value is listed as “reduce”. Further, the solubility in data set [1] (DPBS or water) was roughly 160 mM (≈ 164 mg/mL).

`COc1cccc2c1C(=O)c1c(O)c3c(c(O)c1C2=O)C[C@@](O)(/C(CO)=N/OCC(O)(P(=O)(O)O)P(=O)(O)O)C[C@@H]3O[C@H]1C[C@H](N)[C@H](O)[C@H](C)O1` [Compound (IV)]: in data set [2], the “Dose giving similar weight loss, relative to doxorubicin alone (maximum usable dose study)” value was 13 times higher. The solubility in data set [1] (DPBS or water) is roughly 315 mM (≈ 240 mg/mL).

On to `COc1cccc2c1C(=O)c1c(O)c3c(c(O)c1C2=O)C[C@@](O)(C(=O)CO)C[C@@H]3O[C@H]1C[C@H](N)[C@H](O)[C@H](C)O1` [doxorubicin], for which the Weight loss in data set [2] (dose 12 mg/kg (20 μmol/kg), requiring euthanasia after 2 weeks of treatment) was greater than 10%. Also, the “Outcome after Day 27 (tumor volume)” value in data set [3] (after Day 27) was “had to be euthanized because of excessively large tumor volumes”. Moreover, the “Bone lesions” value in data set [3] is “equivalent to those of the control group”.

A word on the solubility: it is the concentration that dissolves in the medium under given conditions.
